Results reported in US5976875A, “Diacylglycerol kinase isoforms epsilon and zeta and methods of use thereof” (priority 1997, dated 1999).
Like-named read-outs stand apart in the source and are kept apart here.

Legend:
DGK.zeta. [1] = molecular target: T1, DGK.zeta. (Homo sapiens, UniProt Q13574); test: DAG kinase assay, homogenates of DGK.zeta.-transfected COS-7 cells; format: biochemical; settings: for nmol phosphatidic acid/mg/h (DAG substrate specificity of DGK.zeta.): each diacylglycerol used as substrate, Table I
T1 construct: The DGK.zeta. cDNA was expressed in pcDNA 1/AMP (Invitrogen) in the foward orientation; expressed in transfected cells; host or cells: COS-7
T1 sequence (Q13574 whole entry): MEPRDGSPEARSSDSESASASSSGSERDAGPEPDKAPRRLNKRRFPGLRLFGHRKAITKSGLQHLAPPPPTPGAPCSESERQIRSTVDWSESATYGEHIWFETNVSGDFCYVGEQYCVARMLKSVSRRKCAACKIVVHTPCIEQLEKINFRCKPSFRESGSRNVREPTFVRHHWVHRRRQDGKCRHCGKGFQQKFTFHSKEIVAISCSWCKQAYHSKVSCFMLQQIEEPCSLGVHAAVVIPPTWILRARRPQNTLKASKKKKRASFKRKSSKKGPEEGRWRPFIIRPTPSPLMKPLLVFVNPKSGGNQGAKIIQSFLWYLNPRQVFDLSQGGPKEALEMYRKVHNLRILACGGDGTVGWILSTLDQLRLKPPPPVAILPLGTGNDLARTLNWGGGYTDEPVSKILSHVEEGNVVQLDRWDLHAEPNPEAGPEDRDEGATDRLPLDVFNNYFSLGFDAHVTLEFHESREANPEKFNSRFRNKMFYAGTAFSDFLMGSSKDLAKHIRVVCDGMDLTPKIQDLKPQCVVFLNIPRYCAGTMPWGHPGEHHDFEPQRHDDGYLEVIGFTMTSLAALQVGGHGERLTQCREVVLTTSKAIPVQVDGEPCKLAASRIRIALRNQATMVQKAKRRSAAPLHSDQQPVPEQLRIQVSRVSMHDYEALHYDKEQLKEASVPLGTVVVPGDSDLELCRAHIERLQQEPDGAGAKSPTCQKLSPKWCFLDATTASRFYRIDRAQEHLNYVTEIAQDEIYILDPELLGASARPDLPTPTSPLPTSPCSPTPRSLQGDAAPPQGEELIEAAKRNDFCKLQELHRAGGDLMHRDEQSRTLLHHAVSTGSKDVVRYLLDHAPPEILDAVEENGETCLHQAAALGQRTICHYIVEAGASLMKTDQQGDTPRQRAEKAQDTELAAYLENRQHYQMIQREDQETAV
Description: (§1) COS-7 Transfection--The DGK.zeta. cDNA was expressed in pcDNA 1/AMP (Invitrogen) in the foward orientation. Each p35 dish containing COS-7 cells at 60-80% confluence was transfected with 1 μg of plasmid DNA and 5 μl of LipofectAMINE according to manufacturer specifications (Life Technologies Inc.). The cells were harvested by washing with ice-cold Hanks' balanced salt solution (Ca^2+ - and […] -free) and were scraped into resuspension buffer (20 mM Tris-HCl, pH 7.4, 0.25 M sucrose, 1 mM EDTA, 4 mM EGTA, 1 mM dithiothreitol, 1 mM pheylmethylsulfonyl fluoride, 20 μg/ml each leupeptin, pepstain, aprotinin, and soybean trypsin inhibitor) 48 h following transfection. All homogenates were frozen on dry ice and stored at -70° C. until assayed.
(§2) DAG Kinase Assay--Cell homogenates were sonicated twice with 5 watts for 5 at 4° C. The protein concentration of each cell homogenate was measured following trichloracetic acid precipitation utilizing the BCA protein assay reagent (Pierce). Each assay contained 50 mM MOPS, pH 7.2, 100 mM NaCl, 20 mM MgCl2, 1 mM EGTA, 1 mM dithiothreitol, 2 mM 1,2-dieleoyl-an-glycerol, 3.5 mM phosphatidylserine, 75 mM octyl-β-glucopyranoside, 500 μM [γ^32 ]ATP, and 0-20 μg of cell homogenate in a volume of 200 μl. For substrate specificity experiments, various diacylglycerol species were substituted for 1,2-dioleoyl-an-glycerol. The reactions were initiated by the addition of ATP (20-30 μCi/μmol), were incubated for 10 min. At 24° C., and were terminated by the addition of 200 μl of 1% perchloric acid. Then, to each tube, we added 1.0 ml of MeOH, 1.0 ml of […], 500 μl of 1% perchloric acid, and 50 μg of phosphatidic acid, vortexed them well, and centrifuged them for 10 min at 400×g. The remaining lower phase was dried under N2 and resuspended in 100 μl of 9:1 CHCl3 /MeOH. Fifty μl of each sample were counted directly by liquid acintillation spectrometry, and the remainder was applied to a 20×20 cm Silica 60A thin layer chromatography plate (Whatman). […] The region containing phosphatidic acid (as indicated by radiolabeled standards) and the remaining areas of each lane were scraped separately, and the radioactivity was estimated by liquid scintillation spectrometry. The amount of phosphatidic acid formed per reaction was calculated as [2(direct count)(PA cpm)(total lane cpm)]×[mole ATP/cpm]. R59959 was dissolved in dimethyl sulfoxide and added to relevant enzymatic reactions just prior to the addition of ATP.

[2] = test system: protein kinase M (PKM), catalytic fragment of mixed rat brain PKC isozymes; test: Phosphorylation of peptides by PKM (kinetics); format: biochemical; settings: for Km: 10 minute reaction, 30° C., read-out: Km as substrate for PKM
Description: Phosphorylation of peptides and proteins--Peptides were phosphorylated by the purified catalytic fragment of mixed rat brain PKC isozymes (protein kinase M; PKM). In all cases involving kinetic measurements, the peptides were phosphorylated by PKM (1:120 dilution of frozen stock solution) at 30° C. All reactions were performed in the linear range of peptide phosphorylation, in an assay mixture containing 40 mM Hepes (pH 7.4), 0.25 mM EGTA, 12.5 mM MgCl2, 75 μM y-[^32 P]ATP, and various concentrations of peptides. In the peptide experiments, the reactions were stopped after 10 minutes by the addition of 1/5 vol of 5×SDS sample buffer, boiled for 5 minutes and then subjected to electrophoresis on 20% acrylamide gels. After the gels were dried, the phosphorylated peptides were localized by autoradiography, excised from the gel, and subjected to Cerenkov scintillation counting.

DGKε = molecular target: T2, DGKε (Homo sapiens, UniProt P52429); test: octyl glucoside/PS mixed-micelle assay of DGK activity, homogenates of DGKε-transfected COS-7 cells; format: biochemical; settings: for inhibition of DGKε activity: 100 μm inhibitor, homogenates from transfected cells
T2 construct: a PCR product of the DGKε cDNA lacking the 3'-untranslated region and part of the 5'-untranslated region was amplified; expressed in transfected cells; host or cells: COS-7
T2 sequence (P52429 1-567): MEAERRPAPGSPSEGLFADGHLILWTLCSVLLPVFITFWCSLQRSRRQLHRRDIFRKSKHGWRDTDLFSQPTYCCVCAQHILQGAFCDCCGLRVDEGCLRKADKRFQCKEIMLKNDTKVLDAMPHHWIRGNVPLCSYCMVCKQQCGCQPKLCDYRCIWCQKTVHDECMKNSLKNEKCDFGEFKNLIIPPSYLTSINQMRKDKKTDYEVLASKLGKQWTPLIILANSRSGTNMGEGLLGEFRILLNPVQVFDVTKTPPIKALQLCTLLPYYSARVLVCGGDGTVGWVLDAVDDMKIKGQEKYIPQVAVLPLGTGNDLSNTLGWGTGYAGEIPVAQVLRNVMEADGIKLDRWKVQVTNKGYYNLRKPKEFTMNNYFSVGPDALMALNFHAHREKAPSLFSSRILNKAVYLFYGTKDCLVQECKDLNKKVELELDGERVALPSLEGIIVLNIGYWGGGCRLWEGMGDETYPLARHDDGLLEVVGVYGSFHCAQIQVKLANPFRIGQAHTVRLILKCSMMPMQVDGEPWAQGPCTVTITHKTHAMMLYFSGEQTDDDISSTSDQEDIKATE
Description: COS-7 Transfection and Assay of DGK Activity--COS-7 transfection was carried out using LipofectAMINE reagent (Life Technologies, Inc.), and all steps were followed by the protocol provided by the manufacturer. After 2.5 days, the cells were harvested and lysed by sonication (twice with 5 watts for 5 s at 4° C.) in the lysis buffer (0.1 ml/35 mm well) containing 20 mm Tris-HCL, pH 7.4, 0.25 m sucrose, 1 mm EDTA, 4 mm EGTA, 1 mm dithiothreitol, 1 mm phenylmethylsulfonyl fluoride, a 20 μg/ml concentration of each: leupeptin, pepstatin, aprotinin, and soybean trypsin inhibitor. Kai, M., Sakane, F., Imai, S., Wada, I., and Kanoh, H. (1994) J. Biol. Chem. 269, 18492-18498. The protein concentration of the cell homogenate was determined with the BCA protein assay reagent (Pierce). In two experiments, the homogenate was separated into soluble and membrane-bound fractions by centrifugation at 100,000×g for 60 min. (4° C.). The pellet was resuspended in lysis buffer, and both fractions were assayed for DGK activity.
Since the full-length cDNA of DGKε could not be expressed in COS-7 cells, a PCR product of the DGKε cDNA lacking the 3'-untranslated region and part of the 5'-untranslated region was amplified and cloned into pcDNA/Neo (Invitrogen). The forward primer (SEQ ID NO: 10):
The octyl glucoside/PS mixed-micelle assay of DGK activity was performed as described. Walsh, J. P., Suen, R., Lemaitre, R. N., and Glomset, J. A. (1994) J. Biol. Chem. 269, 21155-21164. In brief, the assay mixture contained 50 mm MOPS, pH 7.2, 100 mm NaCl, 20 mm MgCl2, 1 mm EGTA, 1 mm dithoiothreitol, 2 mm discylglycerol, 3.5 mm phosphatidylserine, 75 mm octyl-β-glucopyranoside, 500 μm [γ-^32 P] ATP, and 20 μg of cellular protein in a volume of 200 μl. The reaction was initiated by the addition of [γ-^32 P] ATP (20-30 μCi/μmol) and processed for 10 min at 24° C. […] The amount of phosphatidic acid formed per reaction was calculated by dividing the radioactivity in phosphatidic acid by the specific radioactivity of the ATP in the reaction.

DGK.zeta. [3] = test: DAG kinase assay, homogenates of DGK.zeta.-transfected COS-7 cells; format: biochemical, human
Description: as §1, §2

## [Ca+2] [calcium]
DGK.zeta. [1]; 0.1-2 mm calcium added at start of reaction
  effect of excess calcium on DGK.zeta. activity: no increase in activity

## KASKKKKRASFKRKSSKK [DGK peptide, 18 amino acid peptide corresponding to residues 256-273 of DGK.zeta]
[2]; listed as native peptide
  Km: ~0.5 µM
[2]
  Km: 0.5 µM
[2]; phosphorylation by PKM
  Hill constant: 0.7

## CCCCC/C=C\C/C=C\C/C=C\C/C=C\CCCC(=O)O[C@@H](CO)COC(=O)CCCCCCCCCCCCCCCCC [1-Stearoyl-2-arachidonyl-sn-glycerol]
DGK.zeta. [1]
  nmol phosphatidic acid/mg/h (DAG substrate specificity of DGK.zeta.): 1106 ± 34 nmol phosphatidic acid/mg/h

## CCCCCCCC/C=C\CCCCCCCC(=O)OCC(O)COC(=O)CCCCCCC/C=C\CCCCCCCC [1,3-Dioleoyl-sn-glycerol]
DGK.zeta. [1]
  nmol phosphatidic acid/mg/h (DAG substrate specificity of DGK.zeta.): 110 ± 8 nmol phosphatidic acid/mg/h

## Cc1nc2sccn2c(=O)c1CCN1CCC(=C(c2ccccc2)c2ccc(F)cc2)CC1 [R59022]
DGKε
  inhibition of DGKε activity: approximately 11%

## CCCCCCCC/C=C\CCCCCCCC(=O)O[C@@H](CO)COC(=O)CCCCCCCCCCCCCCCCC [1-Stearoyl-2-oleoyl-sn-glycerol]
DGK.zeta. [1]
  nmol phosphatidic acid/mg/h (DAG substrate specificity of DGK.zeta.): 801 ± 13 nmol phosphatidic acid/mg/h

## CCCCCCCC/C=C\CCCCCCCC(=O)OC[C@H](CO)OC(=O)CCCCCCCCCCCCCCC [1-Oleoyl-2-palmitoyl-sn-glycerol]
DGK.zeta. [1]
  nmol phosphatidic acid/mg/h (DAG substrate specificity of DGK.zeta.): 856 ± 35 nmol phosphatidic acid/mg/h

## CCCCCCCC/C=C\CCCCCCCC(=O)O[C@@H](CO)COC(=O)CCCCCCCCCCCCCCC [1-Palmitoyl-2-oleoyl-sn-glycerol]
DGK.zeta. [1]
  nmol phosphatidic acid/mg/h (DAG substrate specificity of DGK.zeta.): 805 ± 8 nmol phosphatidic acid/mg/h

## O=c1c2ccccc2[nH]c(=S)n1CCN1CCC(=C(c2ccc(F)cc2)c2ccc(F)cc2)CC1 [R59949]
DGK.zeta. [1]; 100 μm R59949, read-out: DGK.zeta. activity in presence of inhibitor
  activity at 100 µM: 94%
DGK.zeta. [1]; summary statement
  DAG kinase activity of DGK.zeta.-transfected cells in presence of inhibitor: not altered
DGKε
  inhibition of DGKε activity: ~41%

## DGK.zeta.: human diacylglycerol kinase zeta, 928-amino acid protein (SEQ ID NO: 4)
DGK.zeta. [1]; 1,2-dicapryl-sn-glycerol substrate, typical experiment, FIG. 21
  DGK activity: 7.5 nmol/mg/min
DGK.zeta. [1]; 1,2-dioleoyl-sn-glycerol substrate, FIG. 7
  increase in DGK activity compared to vector-transfected cells: 267 fold
DGK.zeta. [3]; native vs ankyrin repeat-deleted (FLAG-tagged) DGK.zeta.
  catalytic activity: 1764 nmol PA/mg/hr
DGK.zeta. [3]; native vs zinc finger deletion mutants, Table II
  DGK.zeta. activity: 243 nmol PA/mg/hr
DGK.zeta. [3]; relative to native DGK.zeta. = 100, Table II
  Relative activity: 100

## CCCCCCCCCC(=O)OC[C@H](CO)OC(=O)CCCCCCCCC [1,2-Dicapryl-sn-glycerol]
DGK.zeta. [1]
  nmol phosphatidic acid/mg/h (DAG substrate specificity of DGK.zeta.): 1440 ± 42 nmol phosphatidic acid/mg/h

## phosphatidylserine
DGKε; additional 3.5 mm phosphatidylserine added to reaction mixture
  effect of increased phosphatidylserine concentration on DGKε activity: only slightly increased

## CCCCCCCC/C=C\CCCCCCCC(=O)OC[C@H](CO)OC(=O)CCCCCCC/C=C\CCCCCCCC [1,2-Dioleoyl-sn-glycerol]
DGK.zeta. [1]
  nmol phosphatidic acid/mg/h (DAG substrate specificity of DGK.zeta.): 1021 ± 9 nmol phosphatidic acid/mg/h
